Assay results from article PMC13244789, “Cutibacterium Adaptation to Life on Humans Provides a Potential C acnes Infection Biomarker” (The Journal of investigative dermatology, 2025).

Target: T1, RoxP_1 (8His-TEV-RoxP_1, RoxP_1-tagless) (Cutibacterium acnes, UniProt Q6A6F6)
T1 construct: gene PPA1939; mature secreted protein; E. coli host, PelB signal peptide
Experiment: native gel shift (Coomassie, TCE tryptophan protection)
Type: binding
Conditions: HSB pH 7.4; weaker than hemin

T1 sequence (Q6A6F6 entry or part of it): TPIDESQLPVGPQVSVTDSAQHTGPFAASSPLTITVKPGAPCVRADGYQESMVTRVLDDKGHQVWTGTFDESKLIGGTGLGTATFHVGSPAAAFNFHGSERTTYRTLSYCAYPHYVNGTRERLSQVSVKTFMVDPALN

## C=CC1=C(C)c2cc3[nH]c(cc4nc(cc5[nH]c(cc1n2)c(C)c5CCC(=O)O)C(CCC(=O)O)=C4C)c(C)c3C=C [protoporphyrin IX]
  native gel shift (Coomassie, TCE tryptophan protection): porphyrins revealed weaker binding to PPIX but no detectable binding to coproporphyrin III
